From patent US12686673B2 (Blueprint Medicines Corporation, priority 2020, dated 2026)
Where a name gives a salt, the structure may show the parent alone. Read-outs that look alike come from different tables or passages of the source.

Key:
Type in all cases: cell-based
[1] = molecular target: EGFR(D770_N771insSVD) expressing Ba/F3 stable cell line (Homo sapiens, UniProt P00533, DUP768-770, cells depend on it); assay: Cellular proliferation (Alamar Blue) assay, EGFR D770_N771insSVD Ba/F3; conditions: 72 hr, read-out: D770 IC50
EGFR(D770_N771insSVD) expressing Ba/F3 stable cell line, sequence (P00533 with tags, fused parts or gaps DUP768-770): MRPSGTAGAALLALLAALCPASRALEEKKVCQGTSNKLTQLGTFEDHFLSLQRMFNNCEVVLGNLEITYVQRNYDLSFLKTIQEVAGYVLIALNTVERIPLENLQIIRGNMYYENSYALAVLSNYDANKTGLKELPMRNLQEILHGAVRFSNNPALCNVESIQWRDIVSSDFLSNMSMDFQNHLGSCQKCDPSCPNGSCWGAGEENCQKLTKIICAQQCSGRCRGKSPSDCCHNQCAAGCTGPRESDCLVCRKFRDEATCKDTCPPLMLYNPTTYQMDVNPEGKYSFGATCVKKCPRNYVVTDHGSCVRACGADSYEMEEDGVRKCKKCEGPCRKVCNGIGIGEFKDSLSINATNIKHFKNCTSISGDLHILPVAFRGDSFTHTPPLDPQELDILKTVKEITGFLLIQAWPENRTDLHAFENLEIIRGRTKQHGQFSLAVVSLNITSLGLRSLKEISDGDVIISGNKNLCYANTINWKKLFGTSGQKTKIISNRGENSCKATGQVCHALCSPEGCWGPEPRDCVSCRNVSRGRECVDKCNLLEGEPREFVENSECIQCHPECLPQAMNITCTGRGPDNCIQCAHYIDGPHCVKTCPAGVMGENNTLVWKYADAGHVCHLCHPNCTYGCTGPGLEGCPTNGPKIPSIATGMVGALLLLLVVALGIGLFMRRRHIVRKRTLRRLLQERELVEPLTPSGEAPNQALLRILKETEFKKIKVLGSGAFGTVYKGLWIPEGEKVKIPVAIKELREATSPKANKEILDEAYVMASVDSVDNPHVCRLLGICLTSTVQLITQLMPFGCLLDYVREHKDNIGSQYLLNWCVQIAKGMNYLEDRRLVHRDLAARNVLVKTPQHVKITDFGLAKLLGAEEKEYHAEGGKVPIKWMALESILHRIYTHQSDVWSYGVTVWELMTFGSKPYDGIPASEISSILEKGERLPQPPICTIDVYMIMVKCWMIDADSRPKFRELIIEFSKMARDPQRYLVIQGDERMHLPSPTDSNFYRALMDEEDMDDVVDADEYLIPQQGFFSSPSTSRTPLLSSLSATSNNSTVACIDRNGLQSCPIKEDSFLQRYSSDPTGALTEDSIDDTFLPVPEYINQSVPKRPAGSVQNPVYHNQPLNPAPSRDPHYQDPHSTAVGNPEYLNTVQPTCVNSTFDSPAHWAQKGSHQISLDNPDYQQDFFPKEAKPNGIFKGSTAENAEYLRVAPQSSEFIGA
Method in brief: (§1)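 Proliferation of mutant-dependent Ba/F3 lines is measured by Alamar Blue reduction over 3 hours, following a 72 hr incubation with test compound spanning 10-0.0005 μM final in threefold dilutions. Cells go in at 15,000 per well in RPMI containing 10% FBS the day before dosing.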

[2] = molecular target: EGFR (A767_dupASV) expressing Ba/F3 stable cell line (Homo sapiens, UniProt P00533, DUP767-769, cells depend on it); assay: Cellular proliferation (Alamar Blue) assay, EGFR A767_dupASV Ba/F3; conditions: 72 hr, read-out: A767 IC50
EGFR (A767_dupASV) expressing Ba/F3 stable cell line, sequence (P00533 with tags, fused parts or gaps DUP767-769): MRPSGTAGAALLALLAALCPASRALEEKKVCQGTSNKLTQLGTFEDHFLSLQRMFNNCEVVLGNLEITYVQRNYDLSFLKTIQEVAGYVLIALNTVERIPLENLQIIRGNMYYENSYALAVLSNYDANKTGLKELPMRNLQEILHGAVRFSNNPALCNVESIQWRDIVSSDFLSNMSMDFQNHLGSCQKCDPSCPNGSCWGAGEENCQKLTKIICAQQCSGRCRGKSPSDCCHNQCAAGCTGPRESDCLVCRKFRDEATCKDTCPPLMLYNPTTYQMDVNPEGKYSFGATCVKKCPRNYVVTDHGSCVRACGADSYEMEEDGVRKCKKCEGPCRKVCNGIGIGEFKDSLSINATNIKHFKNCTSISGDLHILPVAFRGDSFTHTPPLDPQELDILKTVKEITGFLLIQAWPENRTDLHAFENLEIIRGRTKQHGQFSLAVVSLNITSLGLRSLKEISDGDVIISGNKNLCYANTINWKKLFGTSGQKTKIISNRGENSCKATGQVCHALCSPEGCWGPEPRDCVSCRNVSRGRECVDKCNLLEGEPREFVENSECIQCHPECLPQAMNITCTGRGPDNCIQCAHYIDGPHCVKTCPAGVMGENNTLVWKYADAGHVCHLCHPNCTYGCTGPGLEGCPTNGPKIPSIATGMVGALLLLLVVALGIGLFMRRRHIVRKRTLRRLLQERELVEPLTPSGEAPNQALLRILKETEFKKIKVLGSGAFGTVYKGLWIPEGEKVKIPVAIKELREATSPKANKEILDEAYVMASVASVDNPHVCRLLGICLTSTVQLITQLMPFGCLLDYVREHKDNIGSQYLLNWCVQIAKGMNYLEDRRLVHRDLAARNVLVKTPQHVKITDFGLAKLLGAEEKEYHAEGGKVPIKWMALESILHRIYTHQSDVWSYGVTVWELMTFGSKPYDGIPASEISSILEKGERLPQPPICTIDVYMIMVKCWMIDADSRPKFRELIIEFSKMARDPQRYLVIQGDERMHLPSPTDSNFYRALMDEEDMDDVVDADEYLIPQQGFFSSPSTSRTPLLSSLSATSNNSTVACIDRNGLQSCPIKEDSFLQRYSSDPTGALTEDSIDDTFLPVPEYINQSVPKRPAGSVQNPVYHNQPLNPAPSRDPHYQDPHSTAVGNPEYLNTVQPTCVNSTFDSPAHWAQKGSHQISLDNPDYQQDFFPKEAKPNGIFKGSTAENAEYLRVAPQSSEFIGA
Method in brief: as §1

A431 cells = assay: Cellular proliferation (Alamar Blue) assay, A431
[3] = molecular target: EGFR (H773insNPH) expressing Ba/F3 stable cell line (Homo sapiens, UniProt P00533, DUP771-773, cells depend on it); assay: Cellular proliferation (Alamar Blue) assay, EGFR H773insNPH Ba/F3; conditions: 72 hr, read-out: NPH IC50
EGFR (H773insNPH) expressing Ba/F3 stable cell line, sequence (P00533 with tags, fused parts or gaps DUP771-773): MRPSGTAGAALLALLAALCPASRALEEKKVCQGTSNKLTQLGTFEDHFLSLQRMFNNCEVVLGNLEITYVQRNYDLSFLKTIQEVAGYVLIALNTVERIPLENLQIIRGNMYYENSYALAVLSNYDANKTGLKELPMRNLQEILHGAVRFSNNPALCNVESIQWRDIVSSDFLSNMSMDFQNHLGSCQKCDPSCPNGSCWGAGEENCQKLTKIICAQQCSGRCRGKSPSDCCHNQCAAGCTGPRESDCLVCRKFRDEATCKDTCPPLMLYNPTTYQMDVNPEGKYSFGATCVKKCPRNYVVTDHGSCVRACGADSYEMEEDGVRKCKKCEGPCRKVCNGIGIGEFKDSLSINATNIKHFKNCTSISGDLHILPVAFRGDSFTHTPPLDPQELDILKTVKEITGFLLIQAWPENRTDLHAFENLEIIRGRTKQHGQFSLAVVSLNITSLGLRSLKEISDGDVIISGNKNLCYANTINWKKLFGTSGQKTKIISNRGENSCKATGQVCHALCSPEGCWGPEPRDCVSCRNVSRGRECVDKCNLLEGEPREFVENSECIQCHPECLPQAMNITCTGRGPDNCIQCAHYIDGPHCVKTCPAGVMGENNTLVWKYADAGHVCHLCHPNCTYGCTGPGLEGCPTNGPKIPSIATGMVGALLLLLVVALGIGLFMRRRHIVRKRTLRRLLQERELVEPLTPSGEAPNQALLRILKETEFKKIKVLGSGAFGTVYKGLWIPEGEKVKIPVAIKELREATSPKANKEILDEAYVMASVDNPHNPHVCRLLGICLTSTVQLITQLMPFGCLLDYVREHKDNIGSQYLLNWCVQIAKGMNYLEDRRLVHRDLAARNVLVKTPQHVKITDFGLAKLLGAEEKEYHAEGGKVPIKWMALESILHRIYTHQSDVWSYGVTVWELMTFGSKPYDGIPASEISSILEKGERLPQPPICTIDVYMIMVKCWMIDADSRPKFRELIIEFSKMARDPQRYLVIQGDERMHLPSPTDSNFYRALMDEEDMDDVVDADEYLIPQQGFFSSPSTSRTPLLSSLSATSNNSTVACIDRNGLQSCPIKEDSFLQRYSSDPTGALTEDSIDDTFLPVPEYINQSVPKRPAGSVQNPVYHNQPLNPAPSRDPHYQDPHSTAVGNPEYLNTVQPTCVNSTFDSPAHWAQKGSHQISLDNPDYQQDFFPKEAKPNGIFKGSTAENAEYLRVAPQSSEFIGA
Description: • 1. EGFR(D770_N771insSVD) expressing Ba/F3 stable cell line • 2. EGFR (A767_dupASV) expressing Ba/F3 stable cell line • 3. A431 cells • 4. EGFR (H773insNPH) expressing Ba/F3 stable cell line • 5. HER2 (A775_G776insYVMA) expressing Ba/F3 stable cell line Assay Procedure: • 1. Seed cells at 5000 for A431 and 15,000 cells for Ba/F3 in 100 μL/well in complete media (for A431: DMEM with […] and for Ba/F3 cells: RPMI with 10% FBS) in 96-well tissue culture plate. Leave outer wells without cells for background measurements. Incubate at 37 degree Celsius in […] humidified incubator for 16-18 hours. • 2. Add 0.025 ml of 5× concentration compound dilution or DMSO control. Final compound concentration range is 10-0.0005 μM prepared in 3-fold serial dilutions. Incubate for 72 hr at 37 degree Celsius in […] humidified incubator. • 3. Add 0.0125 ml Alamar Blue™ reagent to each well with multi-channel pipette and tap gently on each side of the plate to mix. Incubate for 3 hours at 37 degree Celsius in 5% CO2 humidified incubator. • 4. […] Data analysis was performed using XLfit 5.5.0.5.

[4] = molecular target: HER2 (A775_G776insYVMA) expressing Ba/F3 stable cell line (Homo sapiens, UniProt P04626, DUP772-775, cells depend on it); assay: Cellular proliferation (Alamar Blue) assay, HER2 A775_G776insYVMA Ba/F3; conditions: 72 hr, read-out: YVMA IC50
HER2 (A775_G776insYVMA) expressing Ba/F3 stable cell line, sequence (P04626 with tags, fused parts or gaps DUP772-775): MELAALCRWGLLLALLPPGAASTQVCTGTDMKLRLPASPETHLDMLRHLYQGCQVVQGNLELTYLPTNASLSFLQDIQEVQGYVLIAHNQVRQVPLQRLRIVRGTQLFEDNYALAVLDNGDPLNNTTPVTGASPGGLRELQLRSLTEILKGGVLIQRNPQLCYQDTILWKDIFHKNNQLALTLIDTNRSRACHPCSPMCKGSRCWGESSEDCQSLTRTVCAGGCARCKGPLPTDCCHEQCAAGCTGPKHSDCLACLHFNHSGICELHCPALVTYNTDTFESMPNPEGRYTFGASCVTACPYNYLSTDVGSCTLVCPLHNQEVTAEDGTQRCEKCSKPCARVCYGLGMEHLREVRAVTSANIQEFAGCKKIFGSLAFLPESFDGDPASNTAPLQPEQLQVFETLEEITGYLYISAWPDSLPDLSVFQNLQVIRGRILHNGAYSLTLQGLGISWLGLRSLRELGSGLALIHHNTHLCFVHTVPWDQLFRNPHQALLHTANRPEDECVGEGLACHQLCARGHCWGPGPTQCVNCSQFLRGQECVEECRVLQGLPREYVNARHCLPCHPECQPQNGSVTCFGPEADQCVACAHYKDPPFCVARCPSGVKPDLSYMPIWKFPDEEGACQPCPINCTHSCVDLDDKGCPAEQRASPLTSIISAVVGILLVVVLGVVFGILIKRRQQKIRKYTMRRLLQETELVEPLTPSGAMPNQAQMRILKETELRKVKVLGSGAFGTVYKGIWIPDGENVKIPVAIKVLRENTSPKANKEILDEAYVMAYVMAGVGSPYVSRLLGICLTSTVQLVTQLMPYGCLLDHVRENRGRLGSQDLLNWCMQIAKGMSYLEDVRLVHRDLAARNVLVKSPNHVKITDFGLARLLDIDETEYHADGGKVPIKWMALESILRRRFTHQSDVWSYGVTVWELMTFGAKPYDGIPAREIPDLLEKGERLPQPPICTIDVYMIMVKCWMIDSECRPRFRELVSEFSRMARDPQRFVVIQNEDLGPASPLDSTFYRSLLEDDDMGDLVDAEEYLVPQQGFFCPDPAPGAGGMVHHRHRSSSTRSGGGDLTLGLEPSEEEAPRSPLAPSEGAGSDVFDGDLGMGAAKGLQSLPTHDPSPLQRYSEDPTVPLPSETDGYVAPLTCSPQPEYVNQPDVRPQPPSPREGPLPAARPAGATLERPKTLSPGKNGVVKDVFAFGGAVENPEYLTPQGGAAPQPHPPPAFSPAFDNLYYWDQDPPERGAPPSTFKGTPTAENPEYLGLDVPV
Method in brief: as §1

[5] = Homo sapiens, A-431; A431 cells, 72 hr, Alamar Blue; read-out: A431 IC50
[6] = Homo sapiens, A-431; A431 cells, Alamar Blue, 72 hr; read-out: A431 IC50

| SMILES | GI50 [1] [nM] | GI50 [2] [nM] | IC50 (A431 cells; [5]) [nM] | GI50 [3] [nM] | GI50 [4] [nM] | IC50 (A431 cells; [6]) [nM] |
| --- | --- | --- | --- | --- | --- | --- |
| C=CC(=O)Nc1ccc(F)c(Nc2nc(Nc3cnn(C4CCC(O)CC4)c3)ncc2Cl)c1 (stereo not shown) [Compound 1, N-(3-((5-chloro-2-((1-(4-hydroxycyclohexyl)-1H-pyrazol-4-yl)amino)pyrimidin-4-yl)amino)-4-fluorophenyl)acrylamide] | 1030 | 930 |  | 796 |  | 3920 |
| C=CC(=O)Nc1ccc(F)c(Nc2nc(Nc3cnn(C)c3)ncc2-c2ccc(C)nc2)c1 [Compound 66, N-(4-fluoro-3-((2-((1-methyl-1H-pyrazol-4-yl)amino)-5-(6-methylpyridin-3-yl)pyrimidin-4-yl)amino)phenyl)acrylamide] |  | 35 |  | 73 | 50 | 138 |
| CN(C)C/C=C/C(=O)Nc1cccc(Nc2nc(Nc3cn(C)nc3Cl)ncc2-c2ccc(C(F)(F)F)cc2)c1 [Compound 53, (E)-N-(3-((2-((3-chloro-1-methyl-1H-pyrazol-4-yl)amino)-5-(4-(trifluoromethyl)phenyl)pyrimidin-4-yl)amino)phenyl)-4-(dimethylamino)but-2-enamide] | 873 | 1020 |  | 1890 |  | 7300 |
| C=CC(=O)Nc1ccc(F)c(Nc2nc(Nc3cnn(C)c3)ncc2-c2cncc(C(F)(F)F)c2)c1 [Compound 56, N-(4-fluoro-3-((2-((1-methyl-1H-pyrazol-4-yl)amino)-5-(5-(trifluoromethyl)pyridin-3-yl)pyrimidin-4-yl)amino)phenyl)acrylamide] |  |  |  | 41 | 92 | 34 |
| C=CC(=O)Nc1cccc(Nc2nc(Nc3cnn(C)c3)ncc2NC(=O)c2ccccc2)c1 [Compound 28, N-(4-((3-acrylamidophenyl)amino)-2-((1-methyl-1H-pyrazol-4-yl)amino)pyrimidin-5-yl)benzamide] | 3130 | 2240 |  | 3010 |  | > 10000 |
| C=C(F)C(=O)NC1CCCC(Nc2nc(Nc3cnn(C)c3)ncc2Cl)C1 (stereo not shown) [Compound 24] | > 10000 | > 10000 |  | 4130 |  | > 10000 |
| C=CC(=O)Nc1ccc(F)c(Nc2nc(Nc3ccc(OC)nc3)ncc2Cl)c1 [Compound 22, N-(3-((5-chloro-2-((6-methoxypyridin-3-yl)amino)pyrimidin-4-yl)amino)-4-fluorophenyl)acrylamide] | 7950 | 3000 |  | 4740 |  | 7100 |
| C=C(F)C(=O)N1CCCC(Nc2nc(Nc3cnn(C)c3)ncc2Cl)C1 (stereo not shown) [Compound 25, 1-(3-((5-chloro-2-((1-methyl-1H-pyrazol-4-yl)amino)pyrimidin-4-yl)amino)piperidin-1-yl)-2-fluoroprop-2-en-1-one] | > 10000 | > 10000 |  | > 10000 |  | > 10000 |
| COc1cc(N2CCCCC2)ccc1Nc1ncc(C(=O)N(C)c2ccccc2)c(Nc2cccc(NC(=O)/C=C/CN(C)C)c2)n1 [Compound 52, (E)-4-((3-(4-(dimethylamino)but-2-enamido)phenyl)amino)-2-((2-methoxy-4-(piperidin-1-yl)phenyl)amino)-N-methyl-N-phenylpyrimidine-5-carboxamide] | 3260 | 982 |  | > 10000 |  | 6560 |

Further lines, results first:

| GI50 [1] [nM] | GI50 [2] [nM] | IC50 (A431 cells; [5]) [nM] | GI50 [3] [nM] | GI50 [4] [nM] | IC50 (A431 cells; [6]) [nM] | SMILES |
| --- | --- | --- | --- | --- | --- | --- |
| 63 | 63 | 109 | 41 | 54 |  | C=CC(=O)Nc1ccc(F)c(Nc2nc(Nc3cnn(C)c3)ncc2-c2cncs2)c1 [Compound 230, N-(4-fluoro-3-((2-((1-methyl-1H-pyrazol-4-yl)amino)-5-(thiazol-5-yl)pyrimidin-4-yl)amino)phenyl)acrylamide] |
| 16 | 39 |  | 30 | 25 | 100 | C=CC(=O)Nc1cccc(Nc2nc(Nc3cnn(C)c3)ncc2-c2cccc(F)c2)c1 [Compound 115, N-(3-((5-(3-fluorophenyl)-2-((1-methyl-1H-pyrazol-4-yl)amino)pyrimidin-4-yl)amino)phenyl)acrylamide trifluoroacetate] |
| 120 | 257 |  | 235 | 413 | 94 | C=CC(=O)Nc1ccc(F)c(Nc2nc(Nc3cn(C)nc3C)ncc2-c2ccc(C(F)(F)F)cc2)c1 [Compound 135, N-(3-((2-((1,3-dimethyl-1H-pyrazol-4-yl)amino)-5-(4-(trifluoromethyl)phenyl)pyrimidin-4-yl)amino)-4-fluorophenyl)acrylamide trifluoroacetate] |
| 98 | 101 | 129 | 101 | 133 |  | [2H]C([2H])([2H])n1cc(Nc2ncc(-c3ccc(C(F)(F)F)cc3)c(Nc3cc(NC(=O)C=C)ccc3F)n2)cn1 [Compound 242, N-{4-fluoro-3-[(2-{[1-(^2H3)methyl-1H-pyrazol-4-yl]amino}-5-[4-(trifluoromethyl)phenyl]pyrimidin-4-yl)amino]phenyl}prop-2-enamide] |
| 30 | 36 |  | 41 | 26 | 120 | C=CC(=O)Nc1ccc(F)c(Nc2nc(Nc3cnn(C)c3)ncc2-c2cncc(C)c2)c1 [Compound 67, N-(4-fluoro-3-((2-((1-methyl-1H-pyrazol-4-yl)amino)-5-(5-methylpyridin-3-yl)pyrimidin-4-yl)amino)phenyl)acrylamide] |
| > 10000 | > 10000 |  | > 10000 |  | > 10000 | C=CC(=O)Nc1ccc(F)c(Nc2nc(Nc3cnn(C)c3)ncc2-c2cccc(N(C)CCN(C)C)c2)c1 [Compound 125, N-(3-((5-(3-((2-(dimethylamino)ethyl)(methyl)amino)phenyl)-2-((1-methyl-1H-pyrazol-4-yl)amino)pyrimidin-4-yl)amino)-4-fluorophenyl)acrylamide] |
| 8450 | 8750 | 3980 | > 10000 |  |  | C=CS(=O)(=O)Nc1ccc(F)c(Nc2nc(Nc3cnn(C)c3)ncc2-c2ccc(C(F)(F)F)cc2)c1 [Compound 253, N-[4-fluoro-3-({2-[(1-methyl-1H-pyrazol-4-yl)amino]-5-[4-(trifluoromethyl)phenyl]pyrimidin-4-yl}amino)phenyl] ethene-1-sulfonamide] |
| 34 |  |  | 34 | 30 | 309 | C=CC(=O)Nc1ccc(F)c(Nc2nc(Nc3cnn(C)c3)ncc2-c2cncc(C(F)F)c2)c1 [Compound 110, N-(3-((5-(5-(difluoromethyl)pyridin-3-yl)-2-((1-methyl-1H-pyrazol-4-yl)amino)pyrimidin-4-yl)amino)-4-fluorophenyl)acrylamide] |
| 35 | 31 |  | 48 |  | 168 | C=CC(=O)Nc1ccc(F)c(Nc2nc(Nc3cnn(C)c3)ncc2-c2cncc(Cl)c2)c1 [Compound 102, N-(3-((5-(5-chloropyridin-3-yl)-2-((1-methyl-1H-pyrazol-4-yl)amino)pyrimidin-4-yl)amino)-4-fluorophenyl)acrylamide] |
|  | 36 |  | 29 | 57 | 163 | C=CC(=O)Nc1cccc(Nc2nc(Nc3cnn(C)c3)ncc2-c2ccc(OC)nc2)c1 [Compound 118, N-(3-((5-(6-methoxypyridin-3-yl)-2-((1-methyl-1H-pyrazol-4-yl)amino)pyrimidin-4-yl)amino)phenyl)acrylamide trifluoroacetate] |
| 294 | 388 |  | 323 |  | 158 | C=CC(=O)Nc1ccc(F)c(Nc2nc(Nc3cnn(C)c3)ncc2-c2ccc3nccn3c2)c1 [Compound 133, N-(4-fluoro-3-((5-(imidazo[1,2-a]pyridin-6-yl)-2-((1-methyl-1H-pyrazol-4-yl)amino)pyrimidin-4-yl)amino)phenyl)acrylamide trifluoroacetate] |
| 1420 | 5960 | 1180 | 2810 |  |  | Cn1cc(Nc2ncc(-c3ccc(C(F)(F)F)cc3)c(Nc3cc(NC(=O)CCl)ccc3F)n2)cn1 [Compound 252, 2-chloro-N-[4-fluoro-3-({2-[(1-methyl-1H-pyrazol-4-yl)amino]-5-[4-(trifluoromethyl)phenyl]pyrimidin-4-yl}amino)phenyl]acetamide] |
